Data: publication PMC8728441, “Biosynthesis of the redox cofactor mycofactocin is controlled by the transcriptional regulator MftR and induced by long-chain acyl-CoA species” (The Journal of Biological Chemistry, 2021)

Assays:
MftR Q15A = molecular target: T1, MftR Q15A (Mycolicibacterium smegmatis, UniProt A0QSB5, Q15A); test: ITC binding of oleoyl-CoA to MftR variant; design: species or system Mycobacterium smegmatis mc^2155
T1 sequence (A0QSB5 1-200 Q15A): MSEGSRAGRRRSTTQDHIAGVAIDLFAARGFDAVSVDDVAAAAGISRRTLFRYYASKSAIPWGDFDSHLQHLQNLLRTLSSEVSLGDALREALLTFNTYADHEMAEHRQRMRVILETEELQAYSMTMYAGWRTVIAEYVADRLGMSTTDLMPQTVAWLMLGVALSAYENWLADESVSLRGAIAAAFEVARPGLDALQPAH
Text: (§1) Next, we examined which amino acid residues contribute to the interaction between MftR and oleoyl-CoA. The crystal structure of Msmeg MftR is currently unavailable; however, an unpublished structure of Rhodococcus jostii RHA1 MftR has been deposited in the Protein Data Bank (PDB) (PDB ID: 2RAE, 54% identical, Fig. S3). Using this structure, we employed SwissDock to model oleoyl-CoA bound to MftR (Fig. 5) ([41], [42]). From the docked structure, we identified eight conserved residues on MftR that were expected to create the acyl-binding pocket or bind CoA through electrostatic interactions. Following single amino acid replacements of the residues, we measured the Kd values of the mutant proteins to oleoyl-CoA using ITC. For the putative acyl-binding pocket residues Phe65, Phe96, and Ile114, mutations to alanine led to no or modest change to the Kd for oleoyl-CoA (Table 1). […] Conversely, when His68 was mutated to alanine, binding of oleoyl-CoA by the protein was undetectable. To validate this observation, competitive EMSAs were carried out using the H68A mutant. […] Thus, it is highly likely that His68 is an important residue for oleoyl-CoA binding. To evaluate residues that were expected to interact with CoA, Gln15, Asp16, Ser67, and Asp66 were targeted. Of these, mutants of Asp16 and Ser67 had the greatest effect (Table 1). […] This latter observation was validated using competitive EMSAs (Fig. S4B). […] Taken together, it is likely that Ser67 and Asp16 participate in oleoyl-CoA binding, likely through electrostatic interactions.
(§2) Mutant strand synthesis reactions were performed according to the Agilent QuikChange site-directed mutagenesis protocol. The mftR_pET28a plasmid was used as a template for site-directed mutagenesis studies. Sequence-verified plasmids were transformed into E. coli BL21(DE3) pLysS cells for protein production and purified using the same protocol as wildtype MftR.
(§3) ITC was performed using TA Nano ITC. MftR was loaded in the sample cell at the concentration of 16 and 250 μM acyl-CoAs (C12–C18) loaded in the syringe. To minimize the effect of buffer mismatch, the stock concentration of acyl-CoAs was prepared using ITC buffer (50 mM Hepes, 50 mM NaCl, and pH 7.5), and the pH was adjusted to within 0.05 units. In addition, MftR was buffer exchanged into ITC buffer using a PD-10 column (GE Life Sciences). The volume of the titrant added at each injection into the sample cell was 2.22 μl. The time interval between the successive injections was 180 s. The temperature of the cell was kept at 25 °C. The data obtained were fit by independent one-site model using NanoAnalyze Data Analysis, version 3.8.0, that was provided with the instrument.

MftR D66A = molecular target: T2, MftR D66A (Mycolicibacterium smegmatis, UniProt A0QSB5, D66A); test: ITC binding of oleoyl-CoA to MftR variant; design: species or system Mycobacterium smegmatis mc^2155
T2 sequence (A0QSB5 1-200 D66A): T1 sequence (A0QSB5 1-200 Q15A)
Text: as §1, §2, §3

MftR F65A = molecular target: T3, MftR F65A (Mycolicibacterium smegmatis, UniProt A0QSB5, F65A); test: ITC binding of oleoyl-CoA to MftR variant; design: species or system Mycobacterium smegmatis mc^2155
T3 sequence (A0QSB5 1-200 F65A): T1 sequence (A0QSB5 1-200 Q15A)
Text: as §1, §2, §3

MftR S67A = molecular target: T4, MftR S67A (Mycolicibacterium smegmatis, UniProt A0QSB5, S67A); test: ITC binding of oleoyl-CoA to MftR variant; design: species or system Mycobacterium smegmatis mc^2155
T4 sequence (A0QSB5 1-200 S67A): T1 sequence (A0QSB5 1-200 Q15A)
Text: as §1, §2, §3

MftR S67W [1] = molecular target: T5, MftR S67W (Mycolicibacterium smegmatis, UniProt A0QSB5, S67W); test: ITC binding of oleoyl-CoA to MftR variant; design: species or system Mycobacterium smegmatis mc^2155
T5 sequence (A0QSB5 1-200 S67W): T1 sequence (A0QSB5 1-200 Q15A)
Text: as §1, §2, §3

MftR D16R = test: ITC binding of oleoyl-CoA to MftR variant; design: species or system Mycobacterium smegmatis mc^2155; conditions: ND = not detected
Text: as §1, §2, §3

MftR S67W [2] = test: ITC binding of oleoyl-CoA to MftR variant; design: species or system Mycobacterium smegmatis mc^2155; conditions: S67W mutation vs WT, ITC
Text: as §1, §2, §3

MftR F96A = molecular target: T6, MftR F96A (Mycolicibacterium smegmatis, UniProt A0QSB5, F96A); test: ITC binding of oleoyl-CoA to MftR variant; design: species or system Mycobacterium smegmatis mc^2155
T6 sequence (A0QSB5 1-200 F96A): T1 sequence (A0QSB5 1-200 Q15A)
Text: as §1, §2, §3

MftR H68A = test: ITC binding of oleoyl-CoA to MftR variant; design: species or system Mycobacterium smegmatis mc^2155; conditions: ND = not detected
Text: as §1, §2, §3

MftR I114A = molecular target: T7, MftR I114A (Mycolicibacterium smegmatis, UniProt A0QSB5, I114A); test: ITC binding of oleoyl-CoA to MftR variant; design: species or system Mycobacterium smegmatis mc^2155
T7 sequence (A0QSB5 1-200 I114A): T1 sequence (A0QSB5 1-200 Q15A)
Text: as §1, §2, §3

MftR D16W = molecular target: T8, MftR D16W (Mycolicibacterium smegmatis, UniProt A0QSB5, D16W); test: ITC binding of oleoyl-CoA to MftR variant; design: species or system Mycobacterium smegmatis mc^2155
T8 sequence (A0QSB5 1-200 D16W): T1 sequence (A0QSB5 1-200 Q15A)
Text: as §1, §2, §3

MftR D16R–Omft complex = test: Competitive EMSA with D16R mutant and oleoyl-CoA; type: binding, Mycobacterium smegmatis mc^2155; conditions: up to 100 μM oleoyl-CoA
Text: Next, we examined which amino acid residues contribute to the interaction between MftR and oleoyl-CoA. The crystal structure of Msmeg MftR is currently unavailable; however, an unpublished structure of Rhodococcus jostii RHA1 MftR has been deposited in the Protein Data Bank (PDB) (PDB ID: 2RAE, 54% identical, Fig. S3). Using this structure, we employed SwissDock to model oleoyl-CoA bound to MftR (Fig. 5) ([41], [42]). From the docked structure, we identified eight conserved residues on MftR that were expected to create the acyl-binding pocket or bind CoA through electrostatic interactions. Following single amino acid replacements of the residues, we measured the Kd values of the mutant proteins to oleoyl-CoA using ITC. For the putative acyl-binding pocket residues Phe65, Phe96, and Ile114, mutations to alanine led to no or modest change to the Kd for oleoyl-CoA (Table 1). […] Conversely, when His68 was mutated to alanine, binding of oleoyl-CoA by the protein was undetectable. To validate this observation, competitive EMSAs were carried out using the H68A mutant. […] Thus, it is highly likely that His68 is an important residue for oleoyl-CoA binding. To evaluate residues that were expected to interact with CoA, Gln15, Asp16, Ser67, and Asp66 were targeted. Of these, mutants of Asp16 and Ser67 had the greatest effect (Table 1). […]

MftR L120R = MftR L120R (Mycolicibacterium smegmatis, UniProt A0QSB5, L120R); test: ITC binding of oleoyl-CoA to MftR variant; design: species or system Mycobacterium smegmatis mc^2155
Procedure: (§4) Finally, we examined the effects of mutations at the interface of the DNA-binding and effector-binding domains. Here, residues Leu120 and Met127 were mutated to arginine and alanine, respectively, and the Kds for oleoyl-CoA and Omft were measured as described previously.
as §2
as §3, with “The data obtained were fit by independent one-site model using NanoAnalyze Data Analysis, version 3.8.0, that was provided with the instrument.” left out

MftR M127A = MftR M127A (Mycolicibacterium smegmatis, UniProt A0QSB5, M127A); test: ITC binding of oleoyl-CoA to MftR variant; design: species or system Mycobacterium smegmatis mc^2155
Procedure: as §4, §2
as §3, with “The data obtained were fit by independent one-site model using NanoAnalyze Data Analysis, version 3.8.0, that was provided with the instrument.” left out

Question: Which results are given for `CCCCCCCC/C=C\CCCCCCCC(=O)SCCNC(=O)CCNC(=O)[C@H](O)C(C)(C)COP(=O)(O)OP(=O)(O)OC[C@H]1O[C@@H](n2cnc3c(N)ncnc32)[C@H](O)[C@@H]1OP(=O)(O)O` [oleoyl-CoA]?
Answer: Kd (MftR Q15A): 2000 ± 100 nM; Kd (MftR D66A): 1600 ± 100 nM; Kd (MftR F65A): 1900 ± 100 nM; Kd (MftR S67A): 5.4 ± 0.2 µM; Kd (MftR S67W [1]): 8.3 ± 0.2 µM; Kd (MftR D16R): no longer detectable; increase in the Kd value for oleoyl-CoA (MftR S67W [2]): eightfold increase; Kd (MftR F96A): 1400 ± 100 nM; Kd (MftR H68A): undetectable; Kd (MftR I114A): 2400 ± 100 nM; Kd (MftR D16W): 4.8 ± 0.2 µM; release of Omft from D16R mutant (MftR D16R–Omft complex): remained bound to Omft; Kd (MftR L120R): 6.2 ± 0.2 µM; Kd (MftR M127A): 4.8 ± 0.1 µM
